Assay results from patent publication US12472193B2, “Methods and compositions for treating and preventing respiratory related diseases and conditions with xylitol-headgroup lipid analogs” (National Jewish Health, priority 2017, dated 2025).
Entries after “also recorded” stand apart in the source; their conditions may differ.

Biological target: T1, TLR 7 (Mus musculus, UniProt P58681)
T1 construct: endogenous in cells; host or cells: RAW264.7 (ATCC)
T1 sequence (P58681 27-1050): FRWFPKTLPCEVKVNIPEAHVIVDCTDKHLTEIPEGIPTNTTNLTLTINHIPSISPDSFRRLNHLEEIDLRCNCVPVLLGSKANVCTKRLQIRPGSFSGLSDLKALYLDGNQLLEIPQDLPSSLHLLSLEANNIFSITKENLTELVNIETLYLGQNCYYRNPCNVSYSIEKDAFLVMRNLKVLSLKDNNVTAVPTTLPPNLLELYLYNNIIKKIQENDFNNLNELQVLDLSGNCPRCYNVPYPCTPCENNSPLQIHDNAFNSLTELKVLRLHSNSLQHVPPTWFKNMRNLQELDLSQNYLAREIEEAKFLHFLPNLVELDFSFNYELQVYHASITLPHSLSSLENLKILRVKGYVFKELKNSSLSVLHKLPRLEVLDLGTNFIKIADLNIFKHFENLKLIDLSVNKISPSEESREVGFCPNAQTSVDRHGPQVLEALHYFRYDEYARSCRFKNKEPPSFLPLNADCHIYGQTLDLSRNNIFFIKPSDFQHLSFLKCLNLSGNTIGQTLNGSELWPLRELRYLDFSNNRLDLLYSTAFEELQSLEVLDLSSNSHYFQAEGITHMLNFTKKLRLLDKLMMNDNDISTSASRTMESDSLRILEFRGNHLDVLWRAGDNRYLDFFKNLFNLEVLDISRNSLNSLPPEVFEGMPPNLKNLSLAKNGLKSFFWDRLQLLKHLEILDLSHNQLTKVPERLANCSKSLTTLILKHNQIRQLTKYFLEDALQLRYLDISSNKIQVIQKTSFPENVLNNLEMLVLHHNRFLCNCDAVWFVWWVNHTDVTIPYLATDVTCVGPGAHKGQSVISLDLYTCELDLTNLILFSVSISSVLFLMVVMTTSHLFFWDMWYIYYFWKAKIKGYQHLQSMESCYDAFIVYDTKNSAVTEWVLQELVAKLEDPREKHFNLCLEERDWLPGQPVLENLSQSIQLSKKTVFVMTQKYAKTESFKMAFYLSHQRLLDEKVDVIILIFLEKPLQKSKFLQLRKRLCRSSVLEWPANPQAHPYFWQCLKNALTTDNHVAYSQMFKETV
Assay: polyU-induced TNFα secretion by RAW264.7 cells (TLR 7 antagonism)
Format: cell-based
Conditions: for antagonism of TLR 7 activation (TNFα release): 20 μg/mL polyU, 20 μg/mL phospholipid, 4 hours; for TLR7 antagonist activity: reduction in cytokine secretion vs activating TLR ligand alone
Description: The mouse macrophage cell line, RAW264.7, was obtained from ATCC and maintained in DMEM, supplemented with 10% bovine growth serum and 1× penicillin streptomycin. Cells were maintained at 37° C. with 5% carbon dioxide: 95% air atmosphere within the incubator. Experiments were completed in a 96-well plate where cells were seated at a density of 1×10^5 cells per well, 24 prior to stimulation with TLR agonists and antagonists. Lipids were dried under a stream of nitrogen, hydrated with phosphate-buffered saline (PBS) at 37° C. for one hour, followed by water bath sonication to create liposomes. Each condition for cell stimulation and antagonism was prepared in DMEM in a separate tube and consisted of: control, TLR agonist, TLR agonist+lipid, and lipid alone. 100 μL aliquots of medium+agonists+antagonists were added to each well and incubated at 37° C. for 4 hours. Subsequently, the media were collected, diluted and an enzyme-linked immunosorbent assay (ELISA) was performed to quantify TNFα release by cells.
TLR 7 is an intracellular receptor of the endosomal compartment. TLR 7 was the first innate immune receptor reported druggable with small molecules, however no breakthrough treatments have been discovered with TLR 7 agonists/antagonists yet (T. Y.-H. Wu, “Strategies for Designing Synthetic Immune Agonists,” Immunology, 2016). TLR 7 detects single-stranded RNA (ssRNA) within endosomal compartments. Xylitol lipids were assessed for antagonism of TLR 7 activation in the presence of the synthetic ssRNA analog, polyuridylic acid (polyU). The macrophage cell line, RAW264.7, was used to assess antagonist activity of PX analogs in a TLR 7-dependent manner. Cells were stimulated with 20 μg/mL polyU for 4 hours in the absence or presence of 20 μg/mL phospholipid. After a 4-hour stimulation media were collected and TNFα secretion was quantified by ELISA. […] Saturated, ester-linked phospholipids appear to be ineffective at antagonizing TLR 7 activation where as their unsaturated ester-linked and saturated ether-linked counterparts were effective.

| SMILES | antagonism of TLR 7 activation (TNFα release) | TLR7 antagonist activity |
| --- | --- | --- |
| CCCCCCCC/C=C\CCCCCCCC(=O)O[C@H](COC(=O)CCCCCCCCCCCCCCC)COP(=O)(O)OCC(O)CO (stereo partly shown) [POPG, palmitoyl-oleoyl-phosphatidylglycerol, reference compound] | markedly inhibited | – |
| CCCCCCC=CCCCCCCCC(=O)OCC(COP(=O)(O)OCC(O)C(O)C(O)CO)OC(=O)CCCCCCCC=CCCCCCC (mixture of isomers) [16:1 DPPX, sn-1-palmitoleoyl, sn-2-palmitoleoyl sn-3 glycerol phosphoxylitol] | markedly inhibited | + (cutoff being greater than a 50% reduction in cytokine secretion compared to activating TLR ligand alone) |
| CCCCCCCC/C=C\CCCCCCCC(=O)O[C@H](COC(=O)CCCCCCCCCCCCCCC)COP(=O)(O)OCC(O)C(O)C(O)CO (stereo partly shown) [POPX, sn-1-palmitoyl, sn-2-oleoyly sn-3 glycerol phosphoxylitol] | – | + (cutoff being greater than a 50% reduction in cytokine secretion compared to activating TLR ligand alone) |
| CCCCCCCCC=CCCCCCCCCOCC(COP(=O)(O)OCC(O)C(O)C(O)CO)OCCCCCCCCC=CCCCCCCCC (mixture of isomers) [18:1 DEPX, sn-1-O-octadecenyl, sn-2-O-octadecenyl sn-3 glycerol phosphoxylitol] | markedly inhibited; also recorded: inhibit | + (cutoff being greater than a 50% reduction in cytokine secretion compared to activating TLR ligand alone) |
| CCCCCCCC/C=C\CCCCCCCC(=O)O[C@H](COC(=O)CCCCCCCCCCCCCCC)COP(=O)([O-])OCC[N+](C)(C)C [POPC, 1-palmitoyl-2-oleoyl-sn-glycero-3-phosphocholine, reference compound] | not affected | – |
| CCCCCCCCC=CCCCCCCCC(=O)OCC(COP(=O)(O)OCC(O)C(O)C(O)CO)OC(=O)CCCCCCCC=CCCCCCCCC (mixture of isomers) [DOPX, sn-1-oleoyl, sn-2-oleoyl sn-3 glycerol phosphoxylitol] | markedly inhibited; also recorded: inhibit | + (cutoff being greater than a 50% reduction in cytokine secretion compared to activating TLR ligand alone) |
| CCCCCC=CCC=CCCCCCCCC(=O)OCC(COP(=O)(O)OCC(O)C(O)C(O)CO)OC(=O)CCCCCCCC=CCC=CCCCCC (mixture of isomers) [18:2 DLPX, sn-1-linoleoyl, sn-2-linoleoyl sn-3 glycerol phosphoxylitol] | markedly inhibited | + (cutoff being greater than a 50% reduction in cytokine secretion compared to activating TLR ligand alone) |
| CCCCCCCCCCCCCCOC[C@H](COP(=O)(O)OCC(O)C(O)C(O)CO)OCCCCCCCCCCCCCC (mixture of isomers) [14:0 DEPX, sn-1-O-myristyl, sn-2-O-myristyl sn-3 glycerol phosphoxylitol] | markedly inhibited | + (cutoff being greater than a 50% reduction in cytokine secretion compared to activating TLR ligand alone) |
